Assay results taken from ChEMBL document CHEMBL3862034, “Measurement of Ligand-Target Residence Times by 1H Relaxation Dispersion NMR Spectroscopy” (J Med Chem, 2016).

Key:
[1] = system: Fusobacterium nucleatum; assay: Binding affinity to Fusobacterium nucleatum class I aptamer assessed as ligand-target residence time at 1H-8 resonance by (1)H relaxation dispersion NMR spectroscopy
[2] = system: Caldanaerobacter subterraneus subsp. tengcongensis; assay: Binding affinity to Thermoanaerobacter tengcongensis class I aptamer assessed as ligand-target residence time at 1H-8 resonance by (1)H relaxation dispersion NMR spectroscopy
[3] = species on record: Bos taurus; assay: Binding affinity to bovine trypsin assessed as ligand-target residence time at 1H-4/5 resonance by (1)H relaxation dispersion NMR spectroscopy
[4] = species on record: Bos taurus; assay: Binding affinity to bovine trypsin assessed as ligand-target residence time at 1H-9 resonance by (1)H relaxation dispersion NMR spectroscopy

Structure (SMILES): NCc1c[nH]c2nc(N)[nH]c(=O)c12
- TIME [1]: 1.75e-07 h
- TIME [2]: 6.39e-08 h

Structure (SMILES): Nc1ccc2cc3ccc(N)cc3nc2c1
- TIME [3]: 5.28e-08 h
- TIME [4]: 5.56e-08 h
